Source: US20240294499A1, “TARGETED PROTEIN DEGRADATION USING BIFUNCTIONAL COMPOUNDS THAT BIND UBIQUITIN LIGASE AND TARGET MCL-1 PROTEIN” (Captor Therapeutics S.A., priority 2021, published 2024)

Tests used:
[1] = test system: MV-4-11 cells; experiment: Cell viability assay (CellTiter-Glo), MV-4-11; type: cell-based; details: 1% FBS; for IC50: Homo sapiens, MV4-11, 24 hours incubation, read-out: Average pIC50 by molecule MV-4-11 (converted)
How it was run: (§1)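 Luminescent ATP readout (CellTiter-Glo) at 24 hours measured viability, expressed relative to DMSO-treated wells. Compound was added directly to the medium as a 9–12-point threefold series starting at 30 uM, at 0.5% final DMSO. The medium contained FBS reduced to 1%.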

[2] = target: T1, [MCL-1]-[compound of formula (I)]-[CRBN/DDB1] complex (Homo sapiens, UniProt Q07820+Q96SW2); experiment: AlphaLISA dose response ternary complex formation assay; type: binding; details: for EC50: read-out: AlphaLISA dose response Average pEC50 by molecule (converted)
T1 sequence (Q07820 whole entry): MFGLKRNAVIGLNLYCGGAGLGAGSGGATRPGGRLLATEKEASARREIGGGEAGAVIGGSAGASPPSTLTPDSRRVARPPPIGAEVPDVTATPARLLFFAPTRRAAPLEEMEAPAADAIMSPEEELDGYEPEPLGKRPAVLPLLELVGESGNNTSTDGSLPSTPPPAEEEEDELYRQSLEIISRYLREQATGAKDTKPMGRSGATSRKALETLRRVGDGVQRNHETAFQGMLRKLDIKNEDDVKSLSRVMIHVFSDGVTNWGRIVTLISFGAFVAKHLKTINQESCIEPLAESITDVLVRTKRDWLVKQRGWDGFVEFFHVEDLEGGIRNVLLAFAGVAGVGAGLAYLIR
T1 sequence (Q96SW2 whole entry): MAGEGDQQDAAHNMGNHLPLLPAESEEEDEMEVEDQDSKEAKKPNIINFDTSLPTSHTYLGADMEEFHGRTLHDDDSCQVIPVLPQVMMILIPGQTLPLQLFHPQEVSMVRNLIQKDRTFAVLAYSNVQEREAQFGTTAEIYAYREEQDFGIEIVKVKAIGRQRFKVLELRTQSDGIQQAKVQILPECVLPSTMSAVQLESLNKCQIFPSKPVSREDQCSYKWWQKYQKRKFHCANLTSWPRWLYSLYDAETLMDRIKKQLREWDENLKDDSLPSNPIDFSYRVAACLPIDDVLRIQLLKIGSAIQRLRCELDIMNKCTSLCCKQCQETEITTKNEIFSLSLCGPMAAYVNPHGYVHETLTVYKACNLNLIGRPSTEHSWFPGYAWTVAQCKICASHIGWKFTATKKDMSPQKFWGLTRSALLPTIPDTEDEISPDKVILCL
T1 sequence (Q16531 whole entry partner): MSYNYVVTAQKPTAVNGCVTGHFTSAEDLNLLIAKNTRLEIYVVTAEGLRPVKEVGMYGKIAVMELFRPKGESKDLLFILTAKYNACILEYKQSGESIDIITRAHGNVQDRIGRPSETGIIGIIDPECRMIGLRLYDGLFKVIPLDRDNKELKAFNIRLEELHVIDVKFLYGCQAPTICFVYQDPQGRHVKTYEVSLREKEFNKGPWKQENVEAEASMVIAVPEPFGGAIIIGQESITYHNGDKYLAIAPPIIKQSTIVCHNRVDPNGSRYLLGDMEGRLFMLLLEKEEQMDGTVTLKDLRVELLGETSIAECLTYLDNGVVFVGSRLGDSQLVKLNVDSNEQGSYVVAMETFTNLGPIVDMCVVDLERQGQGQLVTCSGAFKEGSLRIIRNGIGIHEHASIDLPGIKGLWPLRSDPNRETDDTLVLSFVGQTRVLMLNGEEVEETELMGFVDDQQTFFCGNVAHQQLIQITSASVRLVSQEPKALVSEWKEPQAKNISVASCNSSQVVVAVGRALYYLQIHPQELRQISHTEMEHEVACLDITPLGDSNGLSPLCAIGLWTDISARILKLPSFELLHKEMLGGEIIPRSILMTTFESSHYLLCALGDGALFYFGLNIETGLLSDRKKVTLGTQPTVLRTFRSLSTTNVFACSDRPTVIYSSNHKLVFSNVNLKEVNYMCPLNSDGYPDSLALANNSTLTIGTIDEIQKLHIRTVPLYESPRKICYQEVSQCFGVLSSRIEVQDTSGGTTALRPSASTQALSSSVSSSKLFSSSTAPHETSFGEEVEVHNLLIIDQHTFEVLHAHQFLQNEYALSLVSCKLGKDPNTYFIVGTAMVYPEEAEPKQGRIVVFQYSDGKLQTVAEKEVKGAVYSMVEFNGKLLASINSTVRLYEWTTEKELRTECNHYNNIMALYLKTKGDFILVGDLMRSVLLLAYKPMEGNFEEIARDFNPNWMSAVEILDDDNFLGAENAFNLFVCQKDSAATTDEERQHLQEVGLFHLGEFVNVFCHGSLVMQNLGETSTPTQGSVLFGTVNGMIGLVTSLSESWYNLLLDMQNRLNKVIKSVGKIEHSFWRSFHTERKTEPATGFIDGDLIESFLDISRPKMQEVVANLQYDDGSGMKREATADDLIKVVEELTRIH
How it was run: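 EC50 comes from dose–response of AlphaLISA luminescence (excitation 680, emission 615 nm), normalised between DMSO background and an internal positive control, with concentrations past the hook point dropped. Ternary complex formed by mixing bead-bound biotin-hMCL-1 and His-CRBN/DDB1 (protein solutions 40 and 200 nM) with compound in 2% DMSO, 30 min, 25 °C.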

[3] = test system: ARH-77 cells; experiment: Cell viability assay (CellTiter-Glo), ARH-77; type: cell-based; details: 1% FBS; for IC50: Homo sapiens, ARH-77, 24 hours incubation, read-out: Average pIC50 by molecule ARH-77 (converted)
How it was run: as §1

[4] = target: T1, [MCL-1]-[compound of formula (I)]-[CRBN/DDB1] complex; experiment: HTRF ternary complex assay; type: binding; details: ternary complex formation; for EC50: read-out: HTRF ternary complex Average pEC50 by molecule (converted)
Procedure: The effect of the bifunctional compounds of the invention on the formation of a ternary complex composed of [MCL-1]-[compound of formula (I)]-[CRBN/DDB1] was investigated.
Mix of protein solution were prepared: • 48 nM hMcl-1 and 105.6 nM CRBN was prepared in PPI Europium detection buffer with 2 mM DTT. • Acceptor and donor stock solutions were diluted 100 times in PPI Europium detection buffer. Equal volumes of both reagents were mixed. Finally giving 3 nM of Streptavidin-Eu cryptate […] and 6.67 nM of Anti-6× his-d2 […].
5 μl of protein mix was dispensed to all wells. The tested compounds in dose-response were dispensed onto a white 384-well low volume plate (Greiner, 784075). DMSO was backfilled to all wells, resulting in a final DMSO content of 0.5%. Wells containing only DMSO served as background. Next, 5 μl of solution with donor and acceptor was added to the wells.
The plate was sealed with transparent film and shaken using a VibroTurbulator for 60 see at level 3. The plate was then spun down shortly (10 s, 1000 rcf) and incubated at 25° C. for 180 min.
The read-out was performed with plate reader (Pherastar, BMG Labtech) in time resolved fluorescence mode. Filterset: TR 337 665 620.
The results were analyzed as follows: • 1) an average of fluorescence for background signal was calculated and used as a negative control; • 2) raw fluorescence values for tested compounds were normalized against negative controls; • 3) bell shape curve was fitted to a gaussian distribution using a non-linear least squares Gauss-Newton algorithm; • 4) EC50 and pEC50 values were determined.

Compound	IC50 [1] [nM]	EC50 [2] [nM]	IC50 [3] [nM]	EC50 [4] [nM]	Average pIC50 by molecule MV-4-11 ([1]; 24 hours incubation)	AlphaLISA dose response Average pEC50 by molecule [2]	Average pIC50 by molecule ARH-77 ([3]; 24 hours incubation)	HTRF ternary complex Average pEC50 by molecule [4]
Cc1nn(C)c(C)c1-c1c(Cl)ccc2c(CCCOc3cccc4cc(F)ccc34)c(C(=O)O)n(CCN3CCC4CN(C(=O)COc5cccc6c5CN(C5CCC(=O)NC5=O)C6=O)CC43)c12 (stereo not shown) [Compound 301, 6-Chloro-1-{2-[5-(2-{[2-(2,6-dioxopiperidin-3-yl)-1-oxo-2,3-dihydro-1H-isoindol-4-yl]oxy}acetyl)-octahydropyrrolo[2,3-c]pyrrol-1-yl]ethyl}-3-{3-[(6-fluoronaphthalen-1-yl)oxy]propyl}-7-(1,3,5-trimethyl-1H-pyrazol-4-yl)-1H-indole-2-carboxylic acid]	≤ 100	< 10	> 10000	< 10	–	–	–	–
Cc1nn(C)c(C)c1-c1c(Cl)ccc2c(CCCOc3cccc4cc(F)ccc34)c(C(=O)O)n(CCN3CCC(Nc4cccc5c4C(=O)N(C4CCC(=O)NC4=O)C5=O)CC3)c12 (stereo not shown) [Compound 308]	≤ 316	< 100	> 3160	< 100	–	–	–	–
Cc1nn(C)c(C)c1-c1c(Cl)ccc2c(CCCOc3cccc4ccc(F)cc34)c(C(=O)O)n(CCN3CCN(C(=O)COc4cccc5c4CN(C4CCC(=O)NC4=O)C5=O)CC3)c12 (stereo not shown) [Compound 354, 6-Chloro-1-(2-(4-(2-((2-(2,6-dioxopiperidin-3-yl)-1-oxoisoindolin-4-yl)oxy)acetyl)piperazin-1-yl)ethyl)-3-(3-((7-fluoronaphthalen-1-yl)oxy)propyl)-7-(1,3,5-trimethyl-1H-pyrazol-4-yl)-1H-indole-2-carboxylic acid]	≤ 100	< 100	> 10000	< 100	–	–	–	–
Cc1nn(C)c(C)c1-c1c(Cl)ccc2c(CCCOc3cccc4cc(F)ccc34)c(C(=O)O)n(CCCNC(=O)COc3cccc4c3CN(C3CCC(=O)NC3=O)C4=O)c12 (stereo not shown) [Compound 330, 6-Chloro-1-[3-(2-{[2-(2,6-dioxopiperidin-3-yl)-1-oxo-2,3-dihydro-1H-isoindol-4-yl]oxy}acetamido)propyl]-3-{3-[(6-fluoronaphthalen-1-yl)oxy]propyl}-7-(1,3,5-trimethyl-1H-pyrazol-4-yl)-1H-indole-2-carboxylic acid]	≤ 100	< 100	> 10000	< 100	–	–	–	–
Cc1nn(C)c(C)c1-c1c(Cl)ccc2c(CCCOc3cccc4cc(F)ccc34)c(C(=O)O)n(CCCCCN(C)C(=O)COc3cccc4c3CN(C3CCC(=O)NC3=O)C4=O)c12 (stereo not shown) [Compound 328, 6-Chloro-1-(5-(2-((2-(2,6-dioxopiperidin-3-yl)-1-oxoisoindolin-4-yl)oxy)-N-methylacetamido)pentyl)-3-(3-((6-fluoronaphthalen-1-yl)oxy)propyl)-7-(1,3,5-trimethyl-1H-pyrazol-4-yl)-1H-indole-2-carboxylic acid]	≤ 31.6	< 100	> 3160	< 100	–	–	–	–
Cc1nn(C)c(C)c1-c1c(Cl)ccc2c(CCCOc3cccc4cc(F)ccc34)c(C(=O)O)n(CCN(C)CCN(C)C(=O)COc3cccc4c3CN(C3CCC(=O)NC3=O)C4=O)c12 (stereo not shown) [Compound 327, 6-Chloro-1-(2-((2-(2-((2-(2,6-dioxopiperidin-3-yl)-1-oxoisoindolin-4-yl)oxy)-N-methylacetamido)ethyl)(methyl)amino)ethyl)-3-(3-((6-fluoronaphthalen-1-yl)oxy)propyl)-7-(1,3,5-trimethyl-1H-pyrazol-4-yl)-1H-indole-2-carboxylic acid]	≤ 100	< 100	> 10000	< 10	–	–	–	–
Cc1nn(C)c(C)c1-c1c(Cl)ccc2c(CCCOc3cccc4cc(F)ccc34)c(C(=O)O)n(CCN3CCN(C(=O)COc4cccc5c4CN(C4CCC(=O)NC4=O)C5=O)CC3)c12 (atropisomer, axis not shown; (Sa)) [Compound 295, (Sa)-6-Chloro-1-(2-(4-(2-((2-(2,6-dioxopiperidin-3-yl)-1-oxoisoindolin-4-yl)oxy)acetyl)piperazin-1-yl)ethyl)-3-(3-((6-fluoronaphthalen-1-yl)oxy)propyl)-7-(1,3,5-trimethyl-1H-pyrazol-4-yl)-1H-indole-2-carboxylic acid]	–	–	–	–	≥7.5	>7	<5.0	>7
Cc1nn(C)c(C)c1-c1c(Cl)ccc2c(CCCOc3cccc4cc(F)ccc34)c(C(=O)O)n(CCN3CCN(C(=O)Cn4c(C)nc5c(C(=O)NC6CCC(=O)NC6=O)ccc(C)c54)CC3)c12 (stereo not shown) [Compound 270, 6-Chloro-1-{2-[4-(2-{4-[(2,6-dioxopiperidin-3-yl)carbamoyl]-2,7-dimethyl-1H-1,3-benzodiazol-1-yl}acetyl)piperazin-1-yl]ethyl}-3-{3-[(6-fluoronaphthalen-1-yl)oxy]propyl}-7-(1,3,5-trimethyl-1H-pyrazol-4-yl)-1H-indole-2-carboxylic acid]	≤ 100	< 100	> 10000	< 10	–	–	–	–
Cc1nn(C)c(C)c1-c1c(Cl)ccc2c(CCCOc3cccc4ccccc34)c(C(=O)O)n(CCN3CCC(NC(=O)COc4cccc5c4CN(C4CCC(=O)NC4=O)C5=O)CC3)c12 (stereo not shown) [Compound 221, 6-chloro-1-{2-[4-(2-{[2-(2,6-dioxopiperidin-3-yl)-1-oxo-2,3-dihydro-1H-isoindol-4-yl]oxy}acetamido)piperidin-1-yl]ethyl}-3-[3-(naphthalen-1-yloxy)propyl]-7-(1,3,5-trimethyl-1H-pyrazol-4-yl)-1H-indole-2-carboxylic acid]	≤ 10000	< 100	> 31600	< 100	–	–	–	–
Cc1nn(C)c(C)c1-c1c(Cl)ccc2c(CCCOc3cccc4cc(F)ccc34)c(C(=O)O)n(CCN3CCN(CCOc4cccc5c4C(=O)N(C4CCC(=O)NC4=O)C5=O)CC3)c12 (stereo not shown) [Compound 321, 6-Chloro-1-(2-(4-(2-((2-(2,6-dioxopiperidin-3-yl)-1,3-dioxoisoindolin-4-yl)oxy)ethyl)piperazin-1-yl)ethyl)-3-(3-((6-fluoronaphthalen-1-yl)oxy)propyl)-7-(1,3,5-trimethyl-1H-pyrazol-4-yl)-1H-indole-2-carboxylic acid]	≤ 316	< 10	> 10000	< 100	–	–	–	–
Cc1nn(C)c(C)c1-c1c(Cl)ccc2c(CCCOc3cccc4cc(F)ccc34)c(C(=O)O)n(CCCOCCn3c(C)nc4c(C(=O)NC5CCC(=O)NC5=O)cccc43)c12 (stereo not shown) [Compound 280, 6-Chloro-1-[3-(2-{4-[(2,6-dioxopiperidin-3-yl)carbamoyl]-2-methyl-1H-1,3-benzodiazol-1-yl}ethoxy)propyl]-3-{3-[(6-fluoronaphthalen-1-yl)oxy]propyl}-7-(1,3,5-trimethyl-1H-pyrazol-4-yl)-1H-indole-2-carboxylic acid]	≤ 100	< 10	> 3160	< 10	–	–	–	–
Cc1nn(C)c(C)c1-c1c(Cl)ccc2c(CCCOc3cccc4cc(F)ccc34)c(C(=O)O)n(CCCCN(C)C(=O)COc3cccc4c3CN(C3CCC(=O)NC3=O)C4=O)c12 (stereo not shown) [Compound 326, 6-chloro-1-[4-(2-{[2-(2,6-dioxopiperidin-3-yl)-1-oxo-2,3-dihydro-1H-isoindol-4-yl]oxy}-N-methylacetamido)butyl]-3-{3-[(6-fluoronaphthalen-1-yl)oxy]propyl}-7-(1,3,5-trimethyl-1H-pyrazol-4-yl)-1H-indole-2-carboxylic acid]	≤ 316	< 100	> 10000	< 10	–	–	–	–
Cc1nn(C)c(C)c1-c1c(Cl)ccc2c(CCCOc3cccc4cc(F)ccc34)c(C(=O)O)n(CCCNC(=O)Cn3c(C)nc4c(C(=O)NC5CCC(=O)NC5=O)cccc43)c12 (stereo not shown) [Compound 281, 6-Chloro-1-[3-(2-{4-[(2,6-dioxopiperidin-3-yl)carbamoyl]-2-methyl-1H-1,3-benzodiazol-1-yl}acetamido)propyl]-3-{3-[(6-fluoronaphthalen-1-yl)oxy]propyl}-7-(1,3,5-trimethyl-1H-pyrazol-4-yl)-1H-indole-2-carboxylic acid]	≤ 100	< 100	> 10000	< 10	–	–	–	–
